Test results published in ChEMBL document CHEMBL1201862, “PubChem BioAssay data set” (2004).
Active and inactive are the calls of the source.

Experiments:
[1] = luciferase reporter signal reduction – luminescence, H4-C neuroglioblastoma cells, dose response (AID 2458); type: functional, cell-based;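 note: H4 neuroglioblastoma cells stably carrying a luciferase reporter gene fusion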
[2] = system: Streptococcus sp. 'group A'; assay: growth inhibition of control SK(-) GAS strain, dose response, counter-screen for streptokinase expression inhibitor project, luminescence, kanamycin, BacTiterGlo, confirmation (AID 1900); type: functional, organism-based
cells = type: functional, cell-based
[3] = inhibitors of SNCA 5'UTR-driven reporter translation, confirmation, H4 neuroglioma cells, luminescence (AID 1988); type: functional, cell-based
Streptokinase A = biological target: T1, Streptokinase A (Streptococcus pyogenes serotype M1, UniProt P10520); assay: S. pyogenes streptokinase expression inhibitors, potency, dose response, plasminogen activation absorbance, OD405 (AID 1914); type: functional, Streptococcus pyogenes M1 GAS;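 note: secreted streptokinase activity via plasminogen activation per viability signal from cell pellet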
T1 sequence (P10520 whole entry): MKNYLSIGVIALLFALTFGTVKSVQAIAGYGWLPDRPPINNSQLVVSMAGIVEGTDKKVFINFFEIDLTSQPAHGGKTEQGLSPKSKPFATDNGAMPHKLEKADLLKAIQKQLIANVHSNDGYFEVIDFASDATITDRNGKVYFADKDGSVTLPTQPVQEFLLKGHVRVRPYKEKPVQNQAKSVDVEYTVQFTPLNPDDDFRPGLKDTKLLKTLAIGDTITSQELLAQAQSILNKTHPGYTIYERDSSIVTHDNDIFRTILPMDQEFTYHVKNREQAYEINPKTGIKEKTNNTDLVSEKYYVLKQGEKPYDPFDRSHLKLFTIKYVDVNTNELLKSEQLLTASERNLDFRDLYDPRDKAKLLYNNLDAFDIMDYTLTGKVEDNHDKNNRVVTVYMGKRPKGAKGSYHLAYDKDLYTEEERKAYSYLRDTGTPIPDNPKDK

Streptococcus = assay: Group A Streptococcus viability loss, dose response, counter-screen for streptokinase expression inhibitor project, luminescence, BacTiterGlo (AID 1915); type: functional, organism-based;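 note: potency for reduction of bacterial viability or growth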
[4] = inhibitors of SNCA 5'UTR-driven translation, confirmation, luminescence, H4 neuroglioblastoma cells, dose confirmation (AID 2454); type: functional, cell-based;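 note: H4 neuroglioblastoma cells carrying an alpha-synuclein 5'UTR luciferase reporter; potency for inhibition of the luciferase signal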
[5] = biological target: Intestinal-type alkaline phosphatase (Mus musculus, UniProt P24822); assay: PubChem AID 488874; type: functional
Chain of Intestinal-type alkaline phosphatase (Mus musculus, UniProt P24822) (P24822 whole entry): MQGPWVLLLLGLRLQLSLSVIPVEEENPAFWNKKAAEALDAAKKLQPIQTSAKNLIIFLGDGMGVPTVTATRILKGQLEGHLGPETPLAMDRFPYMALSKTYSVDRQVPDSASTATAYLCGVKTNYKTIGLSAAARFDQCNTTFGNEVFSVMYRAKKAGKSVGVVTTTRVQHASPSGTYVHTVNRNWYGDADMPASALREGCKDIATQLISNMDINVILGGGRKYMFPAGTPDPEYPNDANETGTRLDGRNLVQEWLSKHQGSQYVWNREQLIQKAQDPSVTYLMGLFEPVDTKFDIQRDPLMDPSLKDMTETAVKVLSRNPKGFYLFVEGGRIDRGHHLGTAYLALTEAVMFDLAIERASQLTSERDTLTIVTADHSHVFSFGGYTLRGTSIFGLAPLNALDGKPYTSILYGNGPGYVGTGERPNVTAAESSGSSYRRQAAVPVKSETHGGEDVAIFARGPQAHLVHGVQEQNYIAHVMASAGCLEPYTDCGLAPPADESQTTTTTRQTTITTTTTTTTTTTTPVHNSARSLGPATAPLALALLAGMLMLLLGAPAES

[6] = biological target: T2, Intestinal-type alkaline phosphatase (Homo sapiens, UniProt P09923); assay: human intestinal alkaline phosphatase activators, dose response, biochemical, luminescence, uHTS hits (AID 463120); type: functional
T2 sequence (P09923 whole entry): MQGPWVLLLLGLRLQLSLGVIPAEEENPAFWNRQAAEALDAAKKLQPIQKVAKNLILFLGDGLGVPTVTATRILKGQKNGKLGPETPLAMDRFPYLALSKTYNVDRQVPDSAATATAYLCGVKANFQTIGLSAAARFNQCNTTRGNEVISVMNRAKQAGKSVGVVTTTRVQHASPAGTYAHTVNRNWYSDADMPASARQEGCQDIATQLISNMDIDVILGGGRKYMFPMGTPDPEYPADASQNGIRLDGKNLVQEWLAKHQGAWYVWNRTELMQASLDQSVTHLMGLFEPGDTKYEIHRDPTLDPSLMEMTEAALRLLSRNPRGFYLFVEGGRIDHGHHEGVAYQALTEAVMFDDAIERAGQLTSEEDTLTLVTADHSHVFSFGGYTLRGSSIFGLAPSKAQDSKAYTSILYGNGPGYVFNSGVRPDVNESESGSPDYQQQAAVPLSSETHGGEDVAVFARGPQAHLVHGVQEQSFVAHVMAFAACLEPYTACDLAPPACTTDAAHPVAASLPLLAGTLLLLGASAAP

[7] = cytotoxicity in HEK-293T cells, dose response, cytotoxicity control for TCR NF-kB inhibitor project, luminescence, T-cell screen hits (AID 489026); type: functional, cell-based;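 note: cells exposed to compound about 14 hours before the viability readout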
[8] = biological target: T2, Intestinal-type alkaline phosphatase; assay: human IAP activators, dose response, biochemical, luminescent, uHTS hits, set 2 (AID 488817); type: functional;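 note: potency of activators that raise enzyme activity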
[9] = biological target: T3, Alkaline phosphatase, tissue-nonspecific isozyme (Homo sapiens, UniProt P05186); assay: TNAP enzyme activators, dose response, selectivity assay for human IAP activator project, biochemical, TNAP isozyme, human IAP uHTS hits (AID 488886); type: functional;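 note: potency of compounds raising TNAP activity as a selectivity check on IAP activators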
T3 sequence (P05186 whole entry): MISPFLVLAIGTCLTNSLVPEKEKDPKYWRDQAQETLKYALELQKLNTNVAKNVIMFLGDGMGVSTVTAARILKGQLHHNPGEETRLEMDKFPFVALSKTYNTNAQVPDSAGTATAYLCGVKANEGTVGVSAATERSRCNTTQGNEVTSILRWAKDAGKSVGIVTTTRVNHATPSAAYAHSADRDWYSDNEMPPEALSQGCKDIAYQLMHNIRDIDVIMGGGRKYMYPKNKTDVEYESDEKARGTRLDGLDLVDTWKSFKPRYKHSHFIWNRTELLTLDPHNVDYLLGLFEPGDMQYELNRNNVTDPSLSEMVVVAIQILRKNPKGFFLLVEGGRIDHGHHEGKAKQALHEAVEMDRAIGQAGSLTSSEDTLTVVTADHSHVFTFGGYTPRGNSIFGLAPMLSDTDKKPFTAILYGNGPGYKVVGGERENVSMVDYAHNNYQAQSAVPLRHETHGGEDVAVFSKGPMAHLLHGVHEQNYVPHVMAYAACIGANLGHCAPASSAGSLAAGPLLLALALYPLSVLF

INS1 = assay: beta cell apoptosis inhibitors, cytokine rescue, dose response, luminescence, retest (AID 449756); type: functional, cell-based; conditions: Rattus norvegicus;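 note: cell death triggered by IL-1 beta plus TNF-alpha plus IFN-gamma mixture; protective hits raise ATP signal compared with cytokine alone wells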
HEK293 [10] = assay: NOD1 signaling inhibitors, primary screen, cell-based, luminescence, uHTS (AID 1578); type: functional; conditions: Homo sapiens
HEK293 [11] = assay: cells; type: functional, cell-based; conditions: Homo sapiens
HEK293 [12] = assay: cells; type: functional, cell-based; conditions: Homo sapiens; remark: listed apart in the source
HEK293 [13] = assay: NOD2 signaling inhibitors in MDP-stimulated cells, cell-based, uHTS, luminescence (AID 2001); type: functional; conditions: Homo sapiens
Exodeoxyribonuclease V = Exodeoxyribonuclease V (Escherichia coli (strain K12), UniProt P04993+P07648+P08394); assay: E. coli RecBCD inhibitors, dose response, counter-screen for AddAB inhibitor project, absorbance, V66 E. coli, mutant T4 phage (AID 492957); type: functional, cell-based, Escherichia coli str. K-12 substr. MG1655
Chain of Exodeoxyribonuclease V (P04993 whole entry): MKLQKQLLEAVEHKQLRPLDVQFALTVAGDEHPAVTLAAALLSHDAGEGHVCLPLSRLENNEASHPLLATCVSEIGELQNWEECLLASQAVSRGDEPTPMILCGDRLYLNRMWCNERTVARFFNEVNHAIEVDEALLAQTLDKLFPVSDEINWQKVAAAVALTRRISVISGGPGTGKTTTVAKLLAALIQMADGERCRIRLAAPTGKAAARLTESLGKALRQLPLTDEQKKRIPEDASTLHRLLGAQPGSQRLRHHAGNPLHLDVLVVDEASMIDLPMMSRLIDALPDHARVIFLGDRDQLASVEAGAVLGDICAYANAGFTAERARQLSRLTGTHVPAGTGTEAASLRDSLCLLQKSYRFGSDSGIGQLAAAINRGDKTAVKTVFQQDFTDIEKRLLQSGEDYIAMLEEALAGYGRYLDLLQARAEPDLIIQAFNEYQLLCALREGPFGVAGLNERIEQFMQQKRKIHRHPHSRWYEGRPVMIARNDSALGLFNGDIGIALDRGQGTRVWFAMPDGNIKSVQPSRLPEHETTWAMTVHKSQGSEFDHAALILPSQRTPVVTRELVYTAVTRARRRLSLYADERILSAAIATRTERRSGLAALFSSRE
Chain of Exodeoxyribonuclease V (P07648 whole entry): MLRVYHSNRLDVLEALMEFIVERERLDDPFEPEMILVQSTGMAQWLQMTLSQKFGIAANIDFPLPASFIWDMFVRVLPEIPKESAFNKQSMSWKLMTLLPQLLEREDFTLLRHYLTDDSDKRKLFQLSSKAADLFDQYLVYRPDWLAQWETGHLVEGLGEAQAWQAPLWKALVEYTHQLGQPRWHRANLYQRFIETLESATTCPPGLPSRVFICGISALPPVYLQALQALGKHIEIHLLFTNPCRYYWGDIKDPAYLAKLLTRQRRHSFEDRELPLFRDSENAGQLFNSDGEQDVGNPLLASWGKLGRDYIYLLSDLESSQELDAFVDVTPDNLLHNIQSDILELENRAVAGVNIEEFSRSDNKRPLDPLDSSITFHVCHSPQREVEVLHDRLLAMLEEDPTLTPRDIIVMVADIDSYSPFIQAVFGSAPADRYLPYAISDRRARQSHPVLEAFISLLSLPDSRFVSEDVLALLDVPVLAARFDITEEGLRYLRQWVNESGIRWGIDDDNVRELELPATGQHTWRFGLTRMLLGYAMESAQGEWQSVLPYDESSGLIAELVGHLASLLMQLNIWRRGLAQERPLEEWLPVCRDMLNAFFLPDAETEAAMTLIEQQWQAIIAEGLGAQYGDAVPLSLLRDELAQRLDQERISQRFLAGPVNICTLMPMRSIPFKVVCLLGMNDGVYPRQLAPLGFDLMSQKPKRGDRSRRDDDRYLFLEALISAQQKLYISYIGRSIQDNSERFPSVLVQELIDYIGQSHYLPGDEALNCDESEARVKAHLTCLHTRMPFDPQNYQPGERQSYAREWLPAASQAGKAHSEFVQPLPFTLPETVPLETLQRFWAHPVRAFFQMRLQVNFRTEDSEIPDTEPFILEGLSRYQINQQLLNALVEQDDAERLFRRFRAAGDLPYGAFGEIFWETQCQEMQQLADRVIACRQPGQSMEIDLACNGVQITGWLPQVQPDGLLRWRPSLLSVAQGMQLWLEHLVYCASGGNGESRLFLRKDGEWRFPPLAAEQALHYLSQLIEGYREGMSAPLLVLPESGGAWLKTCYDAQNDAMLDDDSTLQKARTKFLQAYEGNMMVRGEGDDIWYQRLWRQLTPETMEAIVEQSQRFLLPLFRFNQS
Chain of Exodeoxyribonuclease V (P08394 whole entry): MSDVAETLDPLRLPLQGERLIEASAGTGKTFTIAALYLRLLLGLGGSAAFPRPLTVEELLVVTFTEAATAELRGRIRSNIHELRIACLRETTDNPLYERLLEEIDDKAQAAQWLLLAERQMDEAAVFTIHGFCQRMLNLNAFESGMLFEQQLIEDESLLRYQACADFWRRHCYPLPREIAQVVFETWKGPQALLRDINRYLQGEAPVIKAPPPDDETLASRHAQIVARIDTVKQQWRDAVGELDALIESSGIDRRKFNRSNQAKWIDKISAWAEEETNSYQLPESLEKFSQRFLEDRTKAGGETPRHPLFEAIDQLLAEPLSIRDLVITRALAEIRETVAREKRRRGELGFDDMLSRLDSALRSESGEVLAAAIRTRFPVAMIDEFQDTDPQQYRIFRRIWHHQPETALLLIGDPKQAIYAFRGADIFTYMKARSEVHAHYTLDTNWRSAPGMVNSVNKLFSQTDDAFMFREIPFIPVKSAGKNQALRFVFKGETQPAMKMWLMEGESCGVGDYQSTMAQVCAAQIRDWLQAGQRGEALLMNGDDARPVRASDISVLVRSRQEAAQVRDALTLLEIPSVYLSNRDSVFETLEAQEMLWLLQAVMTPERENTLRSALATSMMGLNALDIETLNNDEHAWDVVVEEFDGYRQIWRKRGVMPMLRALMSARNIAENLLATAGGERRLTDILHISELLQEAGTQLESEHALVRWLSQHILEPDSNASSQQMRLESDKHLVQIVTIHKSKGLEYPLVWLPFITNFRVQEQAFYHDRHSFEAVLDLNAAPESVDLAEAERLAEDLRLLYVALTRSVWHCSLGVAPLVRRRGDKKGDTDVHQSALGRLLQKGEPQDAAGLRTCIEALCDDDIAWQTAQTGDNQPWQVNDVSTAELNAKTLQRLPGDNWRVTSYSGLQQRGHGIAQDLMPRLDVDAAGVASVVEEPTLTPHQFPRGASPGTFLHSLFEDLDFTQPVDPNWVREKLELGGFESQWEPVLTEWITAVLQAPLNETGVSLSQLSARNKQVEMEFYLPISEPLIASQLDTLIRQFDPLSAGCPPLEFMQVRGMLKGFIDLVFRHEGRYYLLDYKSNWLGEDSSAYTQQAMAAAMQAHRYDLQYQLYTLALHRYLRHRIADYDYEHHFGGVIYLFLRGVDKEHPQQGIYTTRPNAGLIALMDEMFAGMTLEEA

[14] = Counterscreen for AddAB inhibitors: absorbance-based bacterial cell-based high throughput dose response assay for inhibitors of bacterial viability. [Related pubchem assays (depositor defined):AID435030, AID449728, AID449731, AID488942, AID488955, AID488956]; type: functional
SUMO-activating enzyme = SUMO-activating enzyme (Homo sapiens, UniProt Q9UBT2); assay: SUMOylation inhibitor hit validation, confirmation, SUMOylation inhibitor project, biochemical, AlphaScreen (AID 2018); type: functional
[15] = biological target: Scavenger receptor class B member 1 (Mus musculus, UniProt Q61009); assay: inhibitors of SR-BI mediated HDL lipid uptake, dose response, ldlA[mSR-BI] cells, fluorescence, cherry pick (AID 493194); type: functional, cell-based;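 note: cellular uptake of fluorescent DiI-labeled HDL measured as cell fluorescence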
Chain of Scavenger receptor class B member 1 (Q61009 whole entry): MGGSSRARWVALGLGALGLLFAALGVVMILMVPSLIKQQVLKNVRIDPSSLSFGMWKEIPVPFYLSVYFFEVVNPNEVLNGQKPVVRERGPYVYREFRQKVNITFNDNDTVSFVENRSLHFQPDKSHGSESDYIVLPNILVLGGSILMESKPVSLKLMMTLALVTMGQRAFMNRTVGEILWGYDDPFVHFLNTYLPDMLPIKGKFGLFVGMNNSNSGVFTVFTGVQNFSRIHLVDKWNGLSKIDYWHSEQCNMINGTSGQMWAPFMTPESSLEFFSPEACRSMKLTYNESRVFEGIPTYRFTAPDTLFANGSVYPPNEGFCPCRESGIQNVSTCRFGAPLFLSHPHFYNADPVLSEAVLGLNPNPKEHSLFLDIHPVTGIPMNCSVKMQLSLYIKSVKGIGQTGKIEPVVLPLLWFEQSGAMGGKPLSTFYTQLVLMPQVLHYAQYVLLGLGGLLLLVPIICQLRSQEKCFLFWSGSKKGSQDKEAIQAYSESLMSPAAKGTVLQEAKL

## Cc1c(C(=O)N/N=C/c2c(O)ccc3ccccc23)nnn1-c1nonc1N
[1]
  EC50: 0.898 µM (active)
[2]
  EC50: 5.56 µM (active)
cells
  EC50: 0.958 µM (active)
[3]
  EC50: < 0.1 µM (active)
Streptokinase A
  EC50: > 150 µM (not active)
Streptococcus
  EC50: > 150 µM (not active)
[4]
  EC50: 0.953 µM (active)
[5]
  IC50: 95.2 µM (active)
[6]
  EC50: 7.47 µM (active)
[7]
  IC50: > 80 µM (inactive)
[8]
  EC50: 8.92 µM (active)
[9]
  EC50: 8.59 µM (active)
INS1
  AC50: 0.317 µM (active)

## C=CCSc1nsc(NC(=O)Nc2ccc(F)cc2)n1
HEK293 [10]
  EC50: 3.56 µM (active)
[2]
  EC50: 8.13 µM (active)
HEK293 [11]
  IC50: 2.64 µM (active)
Streptokinase A
  EC50: 23.4 µM (active)
HEK293 [12]
  IC50: 10.1 µM (active)
HEK293 [13]
  IC50: 2.93 µM (active)
Streptococcus
  EC50: 30.4 µM (active)
Exodeoxyribonuclease V
  IC50: > 119 µM (inactive)
[14]
  IC50: > 119 µM (inactive)
INS1
  AC50: 3.1 µM (active)

## CCCCOc1ccc(/C=C/C(=O)Nc2ccc(C(N)=O)cc2)cc1
SUMO-activating enzyme
  IC50: 96.7 µM (active)

## COc1ccccc1Nc1nc(-c2c(C)[nH]c3ccccc23)cs1
[15]
  AC50: 19.4 µM (active)

## CCOC(=O)c1cn(CC)c2cc(N3CCSCC3)c(F)cc2c1=O
Exodeoxyribonuclease V
  IC50: > 119 µM (inactive)
[14]
  IC50: 63.8 µM (inactive)
